This note sets out measurements from paper doi:10.1101/2025.10.23.684218v2, “Development of a dual chemical probe for the USP16 and HDAC6 zinc-finger ubiquitin-binding domain” (biorxiv, 2025).

The target in one experiment is USP16-UBD (USP16 8-185) (Homo sapiens, UniProt Q9Y5T5). In words: ITC. The experiment is classed as binding.
Experiment [1] concerns the target T1, HDAC6-UBD (HDAC6 1109-1215) (Homo sapiens, UniProt Q9UBN7).
T1 sequence (Q9UBN7 1109-1215): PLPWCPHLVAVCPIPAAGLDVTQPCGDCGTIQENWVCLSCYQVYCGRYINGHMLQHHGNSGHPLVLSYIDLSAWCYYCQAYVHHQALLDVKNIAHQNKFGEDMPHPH
Put plainly: SPR, steady state. The experiment is classed as binding.

The target of another experiment is T2, NanoLuc-tagged HDAC6 (Homo sapiens, UniProt Q9UBN7).
T2 construct: N-terminal NanoLuc fusion in HEK293T
T2 sequence (Q9UBN7 1-1215): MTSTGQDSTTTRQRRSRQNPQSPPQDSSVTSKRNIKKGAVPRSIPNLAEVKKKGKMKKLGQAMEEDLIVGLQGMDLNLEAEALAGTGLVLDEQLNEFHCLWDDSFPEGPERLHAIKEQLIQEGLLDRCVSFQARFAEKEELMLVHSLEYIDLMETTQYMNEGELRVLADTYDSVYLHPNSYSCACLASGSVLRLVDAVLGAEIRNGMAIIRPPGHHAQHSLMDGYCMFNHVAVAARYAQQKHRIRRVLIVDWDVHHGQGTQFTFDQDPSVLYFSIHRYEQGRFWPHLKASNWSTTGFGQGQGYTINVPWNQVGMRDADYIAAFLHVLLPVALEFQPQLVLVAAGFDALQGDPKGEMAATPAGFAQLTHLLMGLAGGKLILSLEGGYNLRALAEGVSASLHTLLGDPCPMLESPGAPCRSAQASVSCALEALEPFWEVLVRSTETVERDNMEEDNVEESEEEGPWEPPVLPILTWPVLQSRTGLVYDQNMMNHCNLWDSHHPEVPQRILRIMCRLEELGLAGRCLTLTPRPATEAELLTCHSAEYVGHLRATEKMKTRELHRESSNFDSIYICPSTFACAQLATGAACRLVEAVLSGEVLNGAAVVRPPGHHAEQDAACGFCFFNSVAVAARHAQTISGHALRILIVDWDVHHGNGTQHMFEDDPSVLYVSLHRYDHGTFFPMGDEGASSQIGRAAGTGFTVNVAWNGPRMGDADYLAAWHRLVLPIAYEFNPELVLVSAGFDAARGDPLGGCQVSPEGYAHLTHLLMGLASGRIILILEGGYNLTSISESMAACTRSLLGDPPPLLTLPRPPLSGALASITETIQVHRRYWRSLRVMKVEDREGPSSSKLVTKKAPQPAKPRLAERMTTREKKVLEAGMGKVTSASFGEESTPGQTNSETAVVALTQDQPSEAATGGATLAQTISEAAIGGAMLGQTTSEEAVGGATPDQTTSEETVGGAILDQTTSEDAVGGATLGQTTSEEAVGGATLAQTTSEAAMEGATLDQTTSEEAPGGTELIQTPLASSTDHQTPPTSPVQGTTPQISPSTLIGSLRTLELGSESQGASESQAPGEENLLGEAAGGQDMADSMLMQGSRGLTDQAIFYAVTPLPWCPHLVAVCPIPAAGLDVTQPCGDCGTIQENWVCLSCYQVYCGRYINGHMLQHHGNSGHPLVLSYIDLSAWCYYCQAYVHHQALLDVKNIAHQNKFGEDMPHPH
In words: NanoBRET displacement of HaloTag-ISG15. It counts as cell-based. Background: BRET reads energy transfer from a luciferase to a nearby fluorophore.

The target in experiment [2] is T3, USP16-UBD (USP16 25-185) (Homo sapiens, UniProt Q9Y5T5). Put plainly: SPR, steady state. It counts as binding. In general terms: In SPR one partner is held on a chip, and binding of the other changes the refractive index at the surface.
A further experiment deals with T4, USP33 (Homo sapiens, UniProt Q8TEY7).
T4 construct: UBD, residues 29-134
T4 sequence (Q8TEY7 1-942): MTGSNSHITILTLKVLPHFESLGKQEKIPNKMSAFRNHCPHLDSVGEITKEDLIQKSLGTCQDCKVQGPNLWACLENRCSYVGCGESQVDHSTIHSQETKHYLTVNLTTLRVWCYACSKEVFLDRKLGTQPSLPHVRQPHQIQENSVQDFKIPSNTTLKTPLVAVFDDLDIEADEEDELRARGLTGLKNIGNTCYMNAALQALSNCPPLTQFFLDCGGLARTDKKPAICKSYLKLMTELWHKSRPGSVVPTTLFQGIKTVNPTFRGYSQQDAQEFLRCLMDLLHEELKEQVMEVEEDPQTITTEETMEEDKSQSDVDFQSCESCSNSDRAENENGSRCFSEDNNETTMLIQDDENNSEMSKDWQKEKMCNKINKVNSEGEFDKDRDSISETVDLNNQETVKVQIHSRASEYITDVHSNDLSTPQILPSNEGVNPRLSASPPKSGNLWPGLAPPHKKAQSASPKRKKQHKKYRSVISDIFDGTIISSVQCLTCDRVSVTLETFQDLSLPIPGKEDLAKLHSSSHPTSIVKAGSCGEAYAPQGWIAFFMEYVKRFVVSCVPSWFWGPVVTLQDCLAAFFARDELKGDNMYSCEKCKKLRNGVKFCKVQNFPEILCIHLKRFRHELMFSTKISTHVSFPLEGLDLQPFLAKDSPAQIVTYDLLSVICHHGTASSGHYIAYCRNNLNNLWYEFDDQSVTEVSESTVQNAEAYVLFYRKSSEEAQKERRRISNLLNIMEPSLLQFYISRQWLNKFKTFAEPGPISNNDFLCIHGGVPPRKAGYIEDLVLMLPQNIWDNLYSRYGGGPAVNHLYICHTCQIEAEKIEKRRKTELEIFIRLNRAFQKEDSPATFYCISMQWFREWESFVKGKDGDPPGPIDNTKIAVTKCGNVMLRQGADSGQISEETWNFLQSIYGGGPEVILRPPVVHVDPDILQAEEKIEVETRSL
Put plainly: biochemical. Also noted: SPR, steady-state binding to immobilised biotinylated UBD proteins.

In the next experiment the target is T5, USP16-FL (USP16 1-823) (Homo sapiens, UniProt Q9Y5T5).
T5 construct: full length 1-823, pFBOH-LIC, Sf9 baculovirus, Ni-NTA and MonoQ
In words: ubiquitin-rhodamine110 DUB assay. The experiment is classed as biochemical. To be noted: […] ubiquitin-rhodamine-[…] enzyme, pH […], up to […] compound.

The target in another experiment is T6, NanoLuc-tagged USP16 (Homo sapiens, UniProt Q9Y5T5).
T6 construct: N-terminal NanoLuc fusion in HEK293T
Put plainly: NanoBRET displacement of HaloTag-ISG15. The experiment is classed as cell-based. To be noted: HEK293T cells, […].

The target in experiment [3] is T3, USP16-UBD (USP16 25-185). Put plainly: biochemical. Also noted: SPR, steady-state binding to immobilised biotinylated UBD proteins. To be noted: read-out: Negative Control KD (nM) SGC-UBD1031N.

Structures are written as SMILES. Read-outs that look alike come from different tables or passages of the source. Where only a bound is given, the exact number is not on record here.

T3 sequence (Q9Y5T5 25-185): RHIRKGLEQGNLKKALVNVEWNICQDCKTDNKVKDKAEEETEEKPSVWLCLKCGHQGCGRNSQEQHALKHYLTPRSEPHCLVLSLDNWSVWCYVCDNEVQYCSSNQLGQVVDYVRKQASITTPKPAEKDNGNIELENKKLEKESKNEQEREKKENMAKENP
T5 sequence (Q9Y5T5 whole entry): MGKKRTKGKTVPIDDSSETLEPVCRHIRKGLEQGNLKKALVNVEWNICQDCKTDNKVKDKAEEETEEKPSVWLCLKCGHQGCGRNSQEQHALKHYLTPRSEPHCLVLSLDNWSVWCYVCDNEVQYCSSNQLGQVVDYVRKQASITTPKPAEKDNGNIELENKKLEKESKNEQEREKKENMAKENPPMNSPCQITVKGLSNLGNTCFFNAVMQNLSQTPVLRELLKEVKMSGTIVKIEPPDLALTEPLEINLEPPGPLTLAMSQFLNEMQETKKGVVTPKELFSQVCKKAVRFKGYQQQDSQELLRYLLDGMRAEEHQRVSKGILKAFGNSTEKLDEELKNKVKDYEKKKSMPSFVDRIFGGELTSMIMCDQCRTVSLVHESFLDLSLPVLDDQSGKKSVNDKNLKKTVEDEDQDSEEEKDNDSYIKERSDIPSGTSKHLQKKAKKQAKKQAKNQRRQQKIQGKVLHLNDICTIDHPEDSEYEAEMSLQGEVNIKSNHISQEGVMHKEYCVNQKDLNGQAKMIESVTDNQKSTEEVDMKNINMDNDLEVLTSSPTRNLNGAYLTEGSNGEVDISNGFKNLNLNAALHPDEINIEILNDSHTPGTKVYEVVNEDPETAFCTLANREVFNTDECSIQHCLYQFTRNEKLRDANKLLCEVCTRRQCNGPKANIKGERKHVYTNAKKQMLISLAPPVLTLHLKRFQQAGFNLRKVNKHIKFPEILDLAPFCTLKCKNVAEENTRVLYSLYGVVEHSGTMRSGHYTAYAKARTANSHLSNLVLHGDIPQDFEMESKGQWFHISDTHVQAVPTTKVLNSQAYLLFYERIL
T6 sequence (Q9Y5T5 whole entry, the tested form may be a part): as the sequence (Q9Y5T5 whole entry) above
USP16-UBD (USP16 8-185), sequence (Q9Y5T5 8-185): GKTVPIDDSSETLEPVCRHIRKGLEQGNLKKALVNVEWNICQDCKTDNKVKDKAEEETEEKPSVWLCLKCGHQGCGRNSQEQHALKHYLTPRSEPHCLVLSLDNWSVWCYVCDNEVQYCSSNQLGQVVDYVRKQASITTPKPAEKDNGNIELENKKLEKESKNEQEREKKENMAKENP

`C[C@H](NC(=O)Cn1c(CCC(=O)O)nc2c(Cl)cccc2c1=O)c1c(F)cccc1F` [compound 15, (S)-3-(8-chloro-3-(2-((1-(2,6-difluorophenyl)ethyl)amino)-2-oxoethyl)-4-oxo-3,4-dihydroquinazolin-2-yl)propanoic acid]: the Kd at USP16-UBD (USP16 8-185) was 50 nM; in experiment [1] it was 16 nM; at USP16-UBD (USP16 25-185) [2], 48 nM; on USP33 (read-out: Probe KD (nM) SGC-UBD1031) it was over 10000 nM. On NanoLuc-tagged HDAC6, this molecule yielded a 50% inhibitory concentration (IC50) of 1500 ± 200 nM.
`C[C@@H](NC(=O)Cn1c(CCC(=O)O)nc2c(Cl)cccc2c1=O)c1c(F)cccc1F` [compound 16, (R)-3-(8-chloro-3-(2-((1-(2,6-difluorophenyl)ethyl)amino)-2-oxoethyl)-4-oxo-3,4-dihydroquinazolin-2-yl)propanoic acid]: at USP16-FL (USP16 1-823), the “ubiquitin-rhodamine110 DUB assay” value was “the negative control shows no inhibition of DUB activity”. In addition, at NanoLuc-tagged USP16, the “NanoBRET displacement of HaloTag-ISG15” value is “SGC-UBD1031N did not inhibit the interaction of HDAC6 or USP16 and ISG15”. The Kd in experiment [1] was over 5000 nM; at USP16-UBD (USP16 25-185) [3] it was 1770 ± 300 nM; at USP33 (read-out: Negative Control KD (nM) SGC-UBD1031N), over 10000 nM.

The term Kd denotes the equilibrium constant for the complex coming apart. By IC50 is commonly meant the midpoint of a concentration-inhibition curve. High values mean a need for much substance, low ones inhibition by little substance.
